Data published in ChEMBL document CHEMBL5214930, “Discovery of the First Selective IDO2 Inhibitor As Novel Immunotherapeutic Avenues for Rheumatoid Arthritis” (J Med Chem, 2022).
Blank lines part the entries; values can stand above or below the compound they belong to. Activity calls are given as the source filed them. No cut-off for these calls is given here.

Assays:
[1] = molecular target: T1, Indoleamine 2,3-dioxygenase 1 (Homo sapiens, UniProt P14902); test: Inhibition of recombinant human IDO1 in HeLa cells at 100 nM relative to control; format: cell-based
Target sequence in this assay (P14902 whole entry, looked up): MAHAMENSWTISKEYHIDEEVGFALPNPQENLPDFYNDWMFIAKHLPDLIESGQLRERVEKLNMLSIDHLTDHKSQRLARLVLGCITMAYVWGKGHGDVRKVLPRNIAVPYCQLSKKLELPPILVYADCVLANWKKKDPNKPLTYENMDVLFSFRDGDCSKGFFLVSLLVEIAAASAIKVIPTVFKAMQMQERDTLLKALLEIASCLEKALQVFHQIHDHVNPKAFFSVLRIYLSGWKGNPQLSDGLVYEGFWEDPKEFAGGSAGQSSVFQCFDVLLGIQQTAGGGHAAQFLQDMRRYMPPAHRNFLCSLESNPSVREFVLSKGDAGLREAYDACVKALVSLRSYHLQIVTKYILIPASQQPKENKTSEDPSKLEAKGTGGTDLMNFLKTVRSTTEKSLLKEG

[2] = molecular target: T2, Indoleamine 2,3-dioxygenase 2 (Homo sapiens) (UniProt Q6ZQW0); test: Inhibition of recombinant human IDO2 in HeLa cells at […] relative to control; format: cell-based
T2 sequence (whole entry): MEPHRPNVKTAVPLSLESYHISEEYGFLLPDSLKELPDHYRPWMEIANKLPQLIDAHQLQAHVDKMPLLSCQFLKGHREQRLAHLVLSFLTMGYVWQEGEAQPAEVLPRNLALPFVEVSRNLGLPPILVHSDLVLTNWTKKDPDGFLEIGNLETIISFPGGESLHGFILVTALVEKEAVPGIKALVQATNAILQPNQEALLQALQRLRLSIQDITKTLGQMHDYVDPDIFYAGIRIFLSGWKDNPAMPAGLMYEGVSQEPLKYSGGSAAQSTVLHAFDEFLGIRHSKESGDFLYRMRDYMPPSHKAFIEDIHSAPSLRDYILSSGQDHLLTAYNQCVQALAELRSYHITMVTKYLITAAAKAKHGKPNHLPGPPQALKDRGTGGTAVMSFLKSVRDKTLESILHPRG

HeLa = test: Antiproliferative activity against human HeLa cells; format: functional, cell-based
[3] = molecular target: T2, Indoleamine 2,3-dioxygenase 2 (Homo sapiens); test: Inhibition of recombinant human IDO2 in HeLa cells at 100 nM relative to control; format: cell-based
[4] = molecular target: T1, Indoleamine 2,3-dioxygenase 1; test: Inhibition of human IDO1
Target sequence in this assay (P14902 whole entry): as the sequence (P14902 whole entry, looked up) above

[5] = molecular target: T3, Indoleamine 2,3-dioxygenase 2 (Homo sapiens, UniProt Q6ZQW0); test: Inhibition of human IDO2
T3 sequence (Q6ZQW0 whole entry): T2 sequence (whole entry)

Mus musculus [6] = test: Antiinflammatory activity against xylene-induced ear swelling ICR mouse model assessed as swelling rate at 100 mg/kg, IG measured after 1 hr (Activity = 58.21 +/- 12.79%); format: functional
Mus musculus [7] = test: Antiinflammatory activity against xylene-induced ear swelling ICR mouse model assessed as swelling inhibition ratio at 100 mg/kg, IG measured after 1 hr; format: functional; set-up: scale not given: the % may be the effect or the level left
[8] = Metabolic stability in human liver microsome assessed as binding constant; format: ADME; conditions: microsomes
[9] = Metabolic stability in human liver microsome assessed as half life; format: ADME; conditions: liver microsomes
[10] = Metabolic stability in human liver microsome assessed as intrinsic permeability measured per mg of protein; format: ADME; conditions: microsomes
[11] = Metabolic stability in human liver microsome assessed as intrinsic clearance; format: ADME; conditions: microsomes
[12] = Half life in Sprague-Dawley rat at 10 mg/kg, po; format: ADME, organism-based; conditions: in vivo
[13] = Half life in Sprague-Dawley rat at 1 mg/kg, iv; format: ADME, organism-based; conditions: in vivo
[14] = Tmax in Sprague-Dawley rat at 10 mg/kg, po; format: ADME, organism-based; conditions: in vivo
[15] = Cmax in Sprague-Dawley rat at 10 mg/kg, po; format: ADME, organism-based; set-up: dose 10 mg/kg, route po; conditions: in vivo
[16] = AUC(0 to infinity) in Sprague-Dawley rat at 10 mg/kg, po; format: ADME, organism-based; set-up: time infinity, dose 10 mg/kg, route po; conditions: in vivo
[17] = AUC(0 to infinity) in Sprague-Dawley rat at 1 mg/kg, iv; format: ADME, organism-based; set-up: time infinity, dose 1 mg/kg, route iv; conditions: in vivo
[18] = Clearance in Sprague-Dawley rat at 1 mg/kg, iv; format: ADME, organism-based; conditions: in vivo
[19] = Apparent volume of distribution in Sprague-Dawley rat at 1 mg/kg, iv; format: ADME, organism-based; conditions: in vivo, read-out: Vz
[20] = MRT (0 to infinity) in Sprague-Dawley rat at 10 mg/kg, po; format: ADME, organism-based; conditions: in vivo
[21] = MRT (0 to infinity) in Sprague-Dawley rat at 1 mg/kg, iv; format: ADME, organism-based; conditions: in vivo
[22] = Oral bioavailability in Sprague-Dawley rat at 10 mg/kg; format: ADME, organism-based; conditions: in vivo
Mus musculus [23] = test: Antiarthritic activity against collagen-induced arthritis ip dosed DBA/1J mouse model assessed as paw swelling administered from day 57 to 74 post CFA injection and measured every 3 days; format: functional, organism-based; conditions: dose 25-100 mg/kg, time 17.0 day, DDE = dose-dependent effect
Mus musculus [24] = test: Antiarthritic activity against collagen-induced arthritis DBA/1J mouse model assessed as paw swelling at 100 mg/kg, ip administered from day 57 to 74 post CFA injection and measured every 3 days; format: functional, organism-based; conditions: time 17.0 day
Mus musculus [25] = test: Antiarthritic activity against collagen-induced arthritis DBA/1J mouse model assessed as decrease in IL-18 level at 50 to 100 mg/kg, ip administered from day 57 to 74 post CFA injection and measured every 3 days by immunohistochemical staining method; format: functional, organism-based; conditions: dose 50-100 mg/kg, time 17.0 day
Mus musculus [26] = test: Antiarthritic activity against collagen-induced arthritis DBA/1J mouse model assessed as decrease in IL-33 level at 50 to 100 mg/kg, ip administered from day 57 to 74 post CFA injection and measured every 3 days by immunohistochemical staining method; format: functional, organism-based; conditions: dose 50-100 mg/kg, time 17.0 day
Mus musculus [27] = test: Antiarthritic activity against collagen-induced arthritis DBA/1J mouse model assessed as decrease in inflammation at 100 mg/kg, ip administered from day 57 to 74 post CFA injection and measured every 3 days by H and E staining method; format: functional, organism-based; conditions: time 17.0 day
Mus musculus [28] = test: Antiarthritic activity against collagen-induced arthritis DBA/1J mouse model assessed as increase in cartilage at 100 mg/kg, ip administered from day 57 to 74 post CFA injection and measured every 3 days by H and E staining method; format: functional, organism-based; conditions: time 17.0 day
Mus musculus [29] = test: Antiarthritic activity against collagen-induced arthritis DBA/1J mouse model assessed as decrease in bone erosion at 100 mg/kg, ip administered from day 57 to 74 post CFA injection and measured every 3 days by H and E staining method; format: functional, organism-based; conditions: time 17.0 day
Rattus norvegicus [30] = test: Antiarthritic activity against adjuvant arthritis-induced Sprague-Dawley rat model assessed as decrease in paw swelling at 30 to 120 mg/kg, po administered from day 21 to 36 post CFA injection and measured every 3 days; format: functional, organism-based; conditions: dose 30-120 mg/kg, time 15.0 day
Rattus norvegicus [31] = test: Antiarthritic activity against adjuvant arthritis-induced Sprague-Dawley rat model assessed as decrease in index score at 30 to 120 mg/kg, po administered from day 21 to 36 post CFA injection and measured every 3 days; format: functional, organism-based; conditions: dose 30-120 mg/kg, time 15.0 day
Rattus norvegicus [32] = test: Antiarthritic activity against adjuvant arthritis-induced Sprague-Dawley rat model assessed as decrease in IL-6 level at 30 to 120 mg/kg, po administered from day 21 to 36 post CFA injection and measured every 3 days; format: functional, organism-based; conditions: dose 30-120 mg/kg, time 15.0 day
Rattus norvegicus [33] = test: Antiarthritic activity against adjuvant arthritis-induced Sprague-Dawley rat model assessed as decrease in TNF-alpha level at 30 to 120 mg/kg, po administered from day 21 to 36 post CFA injection and measured every 3 days; format: functional, organism-based; conditions: dose 30-120 mg/kg, time 15.0 day
Rattus norvegicus [34] = test: Antiarthritic activity against adjuvant arthritis-induced po dosed Sprague-Dawley rat model assessed as decrease in inflammatory cell infiltration administered from day 21 to 36 post CFA injection and measured every 3 days by H and E staining method; format: functional, organism-based; conditions: dose 50-100 mg/kg, time 15.0 day, DDE = dose-dependent effect
Rattus norvegicus [35] = test: Antiarthritic activity against adjuvant arthritis-induced po dosed Sprague-Dawley rat model assessed as decrease in pannus formation administered from day 21 to 36 post CFA injection and measured every 3 days by H and E staining method; format: functional, organism-based; conditions: dose 50-100 mg/kg, time 15.0 day, DDE = dose-dependent effect
Rattus norvegicus [36] = test: Antiarthritic activity against adjuvant arthritis-induced po dosed Sprague-Dawley rat model assessed as decrease in bone erosion of cartilage administered from day 21 to 36 post CFA injection and measured every 3 days by H and E staining method; format: functional, organism-based; conditions: dose 50-100 mg/kg, time 15.0 day, DDE = dose-dependent effect
Mus musculus [37] = test: Antiarthritic activity against collagen-induced arthritis DBA/1J mouse model assessed as paw swelling at 15 mg/kg, ip administered from day 57 to 74 post CFA injection and measured every 3 days; format: functional, organism-based; conditions: time 17.0 day
[38] = molecular target: T1, Indoleamine 2,3-dioxygenase 1; test: Inhibition of IDO1 (unknown origin)
Target sequence in this assay (P14902 whole entry): as the sequence (P14902 whole entry, looked up) above

[39] = molecular target: T3, Indoleamine 2,3-dioxygenase 2; test: Inhibition of IDO2 (unknown origin)
[40] = molecular target: Tryptophan 2,3-dioxygenase (Homo sapiens, UniProt P48775); test: Inhibition of TDO (unknown origin)
Tryptophan 2,3-dioxygenase, sequence (P48775 whole entry): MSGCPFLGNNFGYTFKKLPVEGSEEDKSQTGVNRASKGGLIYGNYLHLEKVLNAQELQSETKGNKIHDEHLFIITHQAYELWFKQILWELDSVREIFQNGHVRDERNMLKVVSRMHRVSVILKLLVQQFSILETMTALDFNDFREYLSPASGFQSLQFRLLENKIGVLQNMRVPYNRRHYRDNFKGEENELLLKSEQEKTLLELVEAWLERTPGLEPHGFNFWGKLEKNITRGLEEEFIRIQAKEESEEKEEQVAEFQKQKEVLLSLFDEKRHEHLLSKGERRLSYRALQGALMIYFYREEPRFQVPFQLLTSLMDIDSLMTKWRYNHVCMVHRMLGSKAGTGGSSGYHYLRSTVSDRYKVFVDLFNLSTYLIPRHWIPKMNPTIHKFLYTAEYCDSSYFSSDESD

Structure (SMILES): O=C(NCc1cn(CCNc2nonc2/C(=N/O)NCc2ccc(F)c(Br)c2)nn1)c1ccc[nH]1
- inhibition [1]: 17%
- inhibition [2]: 0%
- EC50 (HeLa): 1600 nM

Structure (SMILES): O=C(NCc1cn(CCNc2nonc2/C(=N/O)Nc2cc(Br)cc(Br)c2)nn1)c1ccccn1
- inhibition [1]: 11%
- inhibition [3]: 15%
- inhibition [2]: 52%
- EC50 (HeLa): 1450 nM

Structure (SMILES): O=C(NCc1cn(CCNc2nonc2/C(=N/O)NCc2ccc(Br)cc2)nn1)c1ccc[nH]1
- inhibition [1]: 4%
- inhibition [2]: 0%
- EC50 (HeLa): 2630 nM

Structure (SMILES): C[C@@H]1CCN(C(=O)CC#N)C[C@@H]1N(C)c1ncnc2[nH]ccc12
- Activity (Mus musculus [37]): Active

Structure (SMILES): O=C(NCc1cn(CCNc2nonc2/C(=N/O)NCc2ccccc2Br)nn1)c1ccccn1
- inhibition [1]: 5%
- inhibition [2]: 2%
- EC50 (HeLa): 4350 nM

Structure (SMILES): CN1CCN(c2ccc3nc4n(c(=O)c3c2)-c2ccc(F)cc2C4=O)CC1
- IC50 [38]: 500 nM
- IC50 [39]: 18400 nM
- IC50 [40]: 760 nM

Continued, in another order:

- inhibition [1]: 4%
- inhibition [3]: 5%
- inhibition [2]: 30%
- EC50 (HeLa): 1380 nM
Structure (SMILES): O=C(NCc1cn(CCNc2nonc2/C(=N/O)Nc2ccc(F)cc2)nn1)c1ccccn1

- inhibition [1]: 26%
- inhibition [3]: 41%
- inhibition [2]: 97%
- IC50 [4]: 411 nM
- IC50 [5]: 112 nM
- EC50 (HeLa): 633 nM
- K [8]: 0.014 min⁻¹
- half-life [9]: 49.5 min
- Pm [10]: 0.25 mL⁻¹
- CLH [11]: 0.056 mL/min
- half-life [12]: 121 min
- half-life [13]: 41.4 min
- Tmax [14]: 45 min
- Cmax [15]: 154 ng/mL
- AUC(0-inf) [16]: 670 ng·h/mL
- AUC(0-inf) [17]: 375 ng·h/mL
- clearance [18]: 44.5 mL/min/kg
- Vd [19]: 2.68 L/kg
- MRT inf [20]: 449 min
- MRT inf [21]: 33 min
- bioavailability [22]: 17.9%
Structure (SMILES): O=C(NCc1cn(CCNc2nonc2/C(=N/O)NCc2cccc(Br)c2)nn1)c1ccccn1
- Activity (Mus musculus [6]): 20.19%
- Activity (Mus musculus [7]): 65.32%
- Activity (Mus musculus [23]): Dde
- Activity (Mus musculus [24]): Active
- Activity (Mus musculus [25]): Active
- Activity (Mus musculus [26]): Active
- Activity (Mus musculus [27]): Active
- Activity (Mus musculus [28]): Active
- Activity (Mus musculus [29]): Active
- Activity (Rattus norvegicus [30]): Active
- Activity (Rattus norvegicus [31]): Active
- Activity (Rattus norvegicus [32]): Active
- Activity (Rattus norvegicus [33]): Active
- Activity (Rattus norvegicus [34]): Dde
- Activity (Rattus norvegicus [35]): Dde
- Activity (Rattus norvegicus [36]): Dde

- inhibition [1]: 52%
- inhibition [3]: 16%
- inhibition [2]: 38%
- EC50 (HeLa): 234 nM
Structure (SMILES): O=C(NCc1cn(CCNc2nonc2/C(=N/O)Nc2ccc(F)c(Cl)c2)nn1)c1ccccn1

- inhibition [1]: 18%
- inhibition [3]: 15%
- inhibition [2]: 41%
- EC50 (HeLa): 663 nM
Structure (SMILES): Cc1ccc(Br)cc1N/C(=N\O)c1nonc1NCCn1cc(CNC(=O)c2ccccn2)nn1

- inhibition [1]: 7%
- inhibition [2]: 0%
- EC50 (HeLa): 1080 nM
Structure (SMILES): O=C(NCc1cn(CCNc2nonc2/C(=N/O)NCc2ccc(F)cc2)nn1)c1ccccn1

- inhibition [1]: 9%
- inhibition [2]: 10%
- EC50 (HeLa): 1210 nM
Structure (SMILES): O=C(NCc1cn(CCNc2nonc2/C(=N/O)NCc2ccc(F)cc2)nn1)c1ccc[nH]1

- inhibition [1]: 44%
- inhibition [3]: 6%
- inhibition [2]: 40%
- EC50 (HeLa): 456 nM
Structure (SMILES): O=C(NCc1cn(CCNc2nonc2/C(=N/O)Nc2ccc(F)c(C(F)(F)F)c2)nn1)c1ccccn1

- inhibition [1]: 69%
- inhibition [2]: 15%
- EC50 (HeLa): 106 nM
Structure (SMILES): O=C(NCc1cn(CCNc2nonc2/C(=N/O)Nc2cccc(Cl)c2)nn1)c1ccccn1
